In ChEMBL document CHEMBL4359923, “One-step Heck Reaction Generates Nonimmunosuppressive FK506 Analogs for Pharmacological BMP Activation” (ACS Med Chem Lett, 2019):
Activity calls are given as the source filed them. The calls are words filed in the database; no cut-off is given here.

Legend:
[1] = target: T1, Peptidyl-prolyl cis-trans isomerase FKBP1A (Homo sapiens, UniProt P62942); experiment: Inhibition of FKBP12-mediated calcineurin activation in PMA/ionomycin stimulated human Jurkat cells transfected with NFAT-Luc assessed as NFAT reporter activity up to 10 uM pretreated for 30 mins prior to PMA/ionomycin activation measured after 6 hrs by luciferase reporter assay; assay type: cell-based
[2] = system: HUVEC; experiment: Cytotoxicity against human HUVEC cells assessed as inhibition of cell growth at 1 to 10 uM measured after 72 hrs by resazurin dye based assay
[3] = target: T1, Peptidyl-prolyl cis-trans isomerase FKBP1A; experiment: Induction of FKBP12-mediated SMAD1/5 phosphorylation in human Jurkat cells measured after 2 hrs by Western blot analysis; assay type: cell-based
[4] = target: T1, Peptidyl-prolyl cis-trans isomerase FKBP1A; experiment: Activation of FKBP12-mediated BMP signaling pathway in human Jurkat cells transfected with BRE-Luc at 1 nM to 1 uM measured after 18 hrs by luciferase reporter assay; assay type: cell-based
[5] = system: HUVEC; experiment: Cytotoxicity against human HUVEC cells assessed as inhibition of cell growth at 10 uM measured after 72 hrs by resazurin dye based assay
[6] = target: T1, Peptidyl-prolyl cis-trans isomerase FKBP1A; experiment: Inhibition of FKBP12-mediated calcineurin activation in PMA/ionomycin stimulated human Jurkat cells transfected with NFAT-Luc assessed as reduction in NFAT reporter activity at 1 uM pretreated for 30 mins prior to PMA/ionomycin activation measured after 6 hrs by luciferase reporter assay; assay type: cell-based

T1 sequence (P62942 whole entry): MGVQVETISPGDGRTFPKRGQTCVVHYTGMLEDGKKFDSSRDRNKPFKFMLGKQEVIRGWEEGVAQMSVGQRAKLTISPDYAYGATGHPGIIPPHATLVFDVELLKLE

## CO[C@H]1C[C@@H](C)C/C(C)=C/[C@@H](C/C=C/c2ccncc2)C(=O)C[C@H](O)[C@@H](C)[C@@H](/C(C)=C/[C@@H]2CC[C@@H](O)[C@H](OC)C2)OC(=O)[C@@H]2CCCCN2C(=O)C(=O)[C@]2(O)O[C@H]1[C@@H](OC)C[C@H]2C
[1]
  inhibition (INH): Not Active
[2]
  Activity: Toxic
[3]
  Activity: Dose-dependent effect
[4]
  Activity: Active

## CO[C@H]1C[C@@H](C)C/C(C)=C/[C@@H](C/C=C/c2ccnc3cc(F)ccc23)C(=O)C[C@H](O)[C@@H](C)[C@@H](/C(C)=C/[C@@H]2CC[C@@H](O)[C@H](OC)C2)OC(=O)[C@@H]2CCCCN2C(=O)C(=O)[C@]2(O)O[C@H]1[C@@H](OC)C[C@H]2C
[5]
  Activity: Toxic
[4]
  Activity: Active
[6]
  inhibition (INH): Active

## CNc1ccc(/C=C/C[C@@H]2/C=C(\C)C[C@H](C)C[C@H](OC)[C@H]3O[C@@](O)(C(=O)C(=O)N4CCCC[C@H]4C(=O)O[C@H](/C(C)=C/[C@@H]4CC[C@@H](O)[C@H](OC)C4)[C@H](C)[C@@H](O)CC2=O)[C@H](C)C[C@@H]3OC)cc1
[2]
  Activity: Toxic
[4]
  Activity: Active
[6]
  inhibition (INH): Active

## CO[C@H]1C[C@@H](C)C/C(C)=C/[C@@H](C/C=C/c2ccccc2N)C(=O)C[C@H](O)[C@@H](C)[C@@H](/C(C)=C/[C@@H]2CC[C@@H](O)[C@H](OC)C2)OC(=O)[C@@H]2CCCCN2C(=O)C(=O)[C@]2(O)O[C@H]1[C@@H](OC)C[C@H]2C
[2]
  Activity: Toxic
[4]
  Activity: Active
[6]
  inhibition (INH): Active

## CO[C@H]1C[C@@H](C)C/C(C)=C/[C@@H](C/C=C/c2ccncc2F)C(=O)C[C@H](O)[C@@H](C)[C@@H](/C(C)=C/[C@@H]2CC[C@@H](O)[C@H](OC)C2)OC(=O)[C@@H]2CCCCN2C(=O)C(=O)[C@]2(O)O[C@H]1[C@@H](OC)C[C@H]2C
[2]
  Activity: Toxic
[4]
  Activity: Active
[6]
  inhibition (INH): Active

## CO[C@H]1C[C@@H](C)C/C(C)=C/[C@@H](C/C=C/c2ccc(N)cc2)C(=O)C[C@H](O)[C@@H](C)[C@@H](/C(C)=C/[C@@H]2CC[C@@H](O)[C@H](OC)C2)OC(=O)[C@@H]2CCCCN2C(=O)C(=O)[C@]2(O)O[C@H]1[C@@H](OC)C[C@H]2C
[2]
  Activity: Toxic
[4]
  Activity: Active
[6]
  inhibition (INH): Active

## CO[C@H]1C[C@@H](C)C/C(C)=C/[C@@H](C/C=C/c2ccnc3c(F)c(F)ccc23)C(=O)C[C@H](O)[C@@H](C)[C@@H](/C(C)=C/[C@@H]2CC[C@@H](O)[C@H](OC)C2)OC(=O)[C@@H]2CCCCN2C(=O)C(=O)[C@]2(O)O[C@H]1[C@@H](OC)C[C@H]2C
[5]
  Activity: Toxic
[4]
  Activity: Active
[6]
  inhibition (INH): Active

## CO[C@H]1C[C@@H](C)C/C(C)=C/[C@@H](C/C=C/c2cccc(N)c2)C(=O)C[C@H](O)[C@@H](C)[C@@H](/C(C)=C/[C@@H]2CC[C@@H](O)[C@H](OC)C2)OC(=O)[C@@H]2CCCCN2C(=O)C(=O)[C@]2(O)O[C@H]1[C@@H](OC)C[C@H]2C
[2]
  Activity: Toxic
[4]
  Activity: Active
[6]
  inhibition (INH): Active

## C=CC[C@@H]1/C=C(\C)C[C@H](C)C[C@H](OC)[C@H]2O[C@@](O)(C(=O)C(=O)N3CCCC[C@H]3C(=O)O[C@H](/C(C)=C/[C@@H]3CC[C@@H](O)[C@H](OC)C3)[C@H](C)[C@@H](O)CC1=O)[C@H](C)C[C@@H]2OC [TACROLIMUS ANHYDROUS]
[2]
  Activity: Toxic
[3]
  Activity: Dose-dependent effect
[4]
  Activity: Active
[6]
  inhibition (INH): Active

## CO[C@H]1C[C@@H](C)C/C(C)=C/[C@@H](C/C=C/c2ccnc3ccccc23)C(=O)C[C@H](O)[C@@H](C)[C@@H](/C(C)=C/[C@@H]2CC[C@@H](O)[C@H](OC)C2)OC(=O)[C@@H]2CCCCN2C(=O)C(=O)[C@]2(O)O[C@H]1[C@@H](OC)C[C@H]2C
[5]
  Activity: Toxic
[4]
  Activity: Active
[6]
  inhibition (INH): Active

## CO[C@H]1C[C@@H](C)C/C(C)=C/[C@@H](C/C=C/c2ccnc(N)c2)C(=O)C[C@H](O)[C@@H](C)[C@@H](/C(C)=C/[C@@H]2CC[C@@H](O)[C@H](OC)C2)OC(=O)[C@@H]2CCCCN2C(=O)C(=O)[C@]2(O)O[C@H]1[C@@H](OC)C[C@H]2C
[1]
  inhibition (INH): Not Active
[2]
  Activity: Toxic
[3]
  Activity: Dose-dependent effect
[4]
  Activity: Active

## CO[C@H]1C[C@@H](C)C/C(C)=C/[C@@H](C/C=C/c2ccncc2N)C(=O)C[C@H](O)[C@@H](C)[C@@H](/C(C)=C/[C@@H]2CC[C@@H](O)[C@H](OC)C2)OC(=O)[C@@H]2CCCCN2C(=O)C(=O)[C@]2(O)O[C@H]1[C@@H](OC)C[C@H]2C
[1]
  inhibition (INH): Not Active
[2]
  Activity: Toxic
[3]
  Activity: Dose-dependent effect
[4]
  Activity: Active
